Results as given in patent US20020137767A1, “Methods for treating addictive disorders” (priority 1999, published 2002).
Values joined by “and” are separate entries in the source; they are usually repeats but may differ in a detail not shown here. Equal values may be shown once.

Experiments:
[1] = system: locomotion induced by d-amphetamine sulphate; conditions: male CD rats, cited from earlier work
[2] = system: stereotypy induced by d-amphetamine sulphate; conditions: ip; d-amphetamine sulphate 10 mg/kg sc; male CD rats; cited from earlier work
D1-like receptors = conditions: po; male CD rats; cited from earlier work
5-HT2 receptors = conditions: po; male CD rats; cited from earlier work
D2-like receptors = conditions: po; male CD rats; cited from earlier work
catalepsy = conditions: ip; male CD rats; cited from earlier work
D1-receptors = conditions: po pretreatment; D2-mediated atypical jerking; male SD rats; cited from earlier work
[3] = system: discriminative stimulus effects of cocaine; test: Cocaine drug discrimination, pretreatment protocol (Example 2); type: in vivo, rhesus monkeys (Macaca mulatta)
Procedure: During the week, all food was delivered after the experimental session, whereas at weekends, food was delivered between 9 a.m. and noon. Water was freely available at all times.
A computer, located in a separate room, controlled the operant panels and data collection.
Discrimination Training: Discrimination training was conducted 5 days per week during daily sessions composed of multiple cycles. Each cycle consisted of a 15 min time-out period followed by a 5 min response period. During the time-out, all stimulus lights were off, and responding had no scheduled consequences. During the response period, the right and left response keys were transilluminated red or green, and monkeys could earn up to 10 food pellets by responding under a FR 30 schedule of food presentation. For one monkey, the left key was illuminated green and the right key was illuminated red; the colors of the response-keys were reversed for the other three monkeys. The center key was not illuminated at any time and responding on it had no scheduled consequences.
On training days, monkeys were given either saline or 0.40 mg/kg cocaine, i.m., 10 min before the response period. Following the administration of saline, responding on only the green key (the saline-appropriate key) produced food, whereas following administration of 0.40 mg/kg cocaine, only responding on the red key (the drug-appropriate key) produced food. Responses on the inappropriate key reset the FR requirement on the appropriate key. Sessions consisted of 1 to 5 cycles and, if cocaine was administered, this occurred only during the last cycle. Thus, training days consisted of 0 to 5 saline cycles followed by 0 or 1 cocaine cycle.
During each response period, 3 dependent variables were determined:
1) Percent injection-appropriate responding prior to delivery of the first reinforcer.
2) Percent injection-appropriate responding for the entire response period.
Monkeys meeting the following criteria during the training day immediately proceeding the test day and in at least 6 of 7 consecutive training sessions before this, were used for discrimination testing:
1) the percent injection-appropriate responding prior to delivery of the first reinforcer was ≧80% for all cycles;
2) the percent injection-appropriate responding for the entire cycle was ≧90% for all cycles;
3) Response rates during saline training cycles were >0.5 responses per second.
Discrimination Testing: Test sessions were identical to training sessions except that responding on either key produced food, and the test compound was administered using a Pretreatment Protocol. In this protocol, a cumulative dose-effect curve for cocaine (0.013-1.3 mg/kg) was determined either alone or following pretreatment with the test compound, which was administered 20 min before the first dose of cocaine.
Mean data from saline and drug cycles during the training day immediately proceeding the initial test day served as the control data for the subsequent test day.

food-maintained behavior = test: Food-maintained responding, FR 30, food components (Example 3)
[4] = system: cocaine self-administration; test: Cocaine self-administration, FR 30, drug component (Example 3)
[5] = i.m. 20 min before session, cocaine 0.003 mg/kg/inj, individual monkeys, hydrobromide

SMILES: COc1cc2c(cc1O)C(C1(c3ccccc3Cl)CC1)N(C)CC2 (single isomer, unassigned; (+)) [BTS 73 947, (+)-1-[1-(2-chlorophenyl)cyclopropyl]-7-hydroxy-6-methoxy-2-methyl-1,2,3,4-tetrahydroisoquinoline]
- duration of action ([1]; behavioral models): > 6 h
- time of peak effect post-dose ([1]; behavioral models): 4 h
- ED50 to inhibit locomotion induced by d-amphetamine sulphate ([1]; ip, d-amphetamine sulphate 2.5 mg/kg sc): 0.7 mg/kg
- fold greater potency against limbic DA function (locomotion vs stereotypy) ([1]; ratio of stereotypy and locomotion ED50, ip): ~3.5 fold
- ED50 to inhibit stereotypy induced by d-amphetamine sulphate [2]: 2.4 mg/kg
- ED50 for protection of D1-like receptors from EEDQ inactivation (D1-like receptors): 1 mg/kg
- protection of 5-HT2 receptors from EEDQ inactivation (5-HT2 receptors): no effect
- protection of D2-like receptors from EEDQ inactivation (D2-like receptors): no effect
- ED50 to induce catalepsy (catalepsy): 25.4 mg/kg
- ratio of ED50 to induce catalepsy to ED50 to inhibit amphetamine locomotion (catalepsy): 36
- ED15 (dose induced 15 jerks in the 15 min test period) (D1-receptors): 3.4 mg/kg

SMILES: COC(=O)[C@H]1[C@@H](OC(=O)c2ccccc2)C[C@@H]2CC[C@H]1N2C.Cl [Cocaine, Cocaine hydrochloride, reference compound]
- substitution for training stimulus (cocaine-appropriate responding) ([3]; cocaine alone 0.4 mg/kg (training dose), all monkeys): Complete substitution
- effect on response rates ([3]; cocaine alone 1.3 mg/kg): decreased response rates
- ED50 for cocaine (50% cocaine-appropriate responding), Cocaine Alone ([3]; cumulative cocaine 0.013-1.3 mg/kg i.m., no pretreatment, individual monkeys 1-4): 0.23 mg/kg

SMILES: Br.COc1cc2c(cc1O)C(C1(c3ccccc3Cl)CC1)N(C)CC2 (single isomer, unassigned; (+)) [test compound, (+)-1-[1-(2-chlorophenyl)cyclopropyl]-7-hydroxy-6-methoxy-2-methyl-1,2,3,4tetrahydroisoquinoline hydrobromide]
- ED50 (food-maintained behavior; Macaca mulatta, read-out: ED50 for decreasing response rates maintained by food (Food #1, preceded the drug component), i.m. 20 min before session, cocaine 0.003 mg/kg/inj, individual monkeys): 0.003 mg/kg
- ED50 for decreasing response rates maintained by food (Food #1, preceded the drug component) (food-maintained behavior; [5]): 0.002 mg/kg
- ED50 for decreasing response rates maintained by food (Food #2, followed the drug component) (food-maintained behavior; [5]): 0.011 mg/kg and 0.006 mg/kg and 0.002 mg/kg
- effect on food-maintained response rates in the first component of food availability (food-maintained behavior; pretreatment 0.01 mg/kg): appreciably decreased
- ED50 for decreasing response rates maintained by cocaine (Drug component) [4, 5]: 0.002 mg/kg and 0.001 mg/kg and 0.004 mg/kg
- rightward shift of the peak of the dose-effect function for cocaine self-administration ([4]; lower pretreatment dose (0.003 mg/kg), on average): 3 fold
- surmountability of treatment effects by increased self-administration of higher unit doses of cocaine ([4]; pretreatment 0.003 and 0.01 mg/kg, any monkey): not surmounted
- effect on responding (response rate) during first one to three cycles ([3]; 0.01 and 0.032 mg/kg, in combination with 0.013 and 0.04 mg/kg cocaine): eliminated responding
- fold increase in the cocaine ED50 value ([3]; pretreatment 0.01 mg/kg, monkey 2): 3 fold
- effect on the cocaine discrimination dose-effect curve ([3]; pretreatment 0.01 mg/kg, the other three monkeys (1, 3, 4)): no effect
- effect on the cocaine discrimination dose-effect curve ([3]; pretreatment 0.032 mg/kg, all four monkeys): rightward shifts
- ED50 for cocaine after pretreatment with test compound 0.01 mg/kg ([3]; test compound 0.01 mg/kg 20 min before first cocaine dose, individual monkeys 1-4, hydrobromide): 0.24 mg/kg and 0.23 mg/kg and 0.72 mg/kg
- ED50 for cocaine after pretreatment with test compound 0.032 mg/kg ([3]; test compound 0.032 mg/kg 20 min before first cocaine dose, individual monkeys 1-4, hydrobromide): 0.72 mg/kg and 0.071 mg/kg
